Experiments:
patient-derived PBMC = system: patient-derived PBMC
Excerpt: FIG. 1: DOX effects on proliferation potential of PBMC from patients under neoadjuvant chemotherapy.
A. Flow cytometry of DOX internalization profile in PBMC isolated from a representative patient before and after DOX parenteral infusion.
B. Quantification of Mean Fluorescence Intensity (MFI) in PBMC isolated from patients. The profiles represent the values of DOX fluorescence in each patient before and after chemotherapy. The histogram reports the mean DOX fluorescence value between all the samples analyzed.
C. Representative image of proliferation analysis of PBMC isolated from BC patients before and after 1 cycle of neoadjuvant chemotherapy with DOX using CFSE assay.
D. Quantification of proliferative index at different days of culture after Concanavalin A stimulation (ConA). The proliferation index is the ratio between proliferating cells and progenitor cells. The absence of proliferation is represented by a proliferative index of 1.
FIG. 2: Characterization of lymphocytes subpopulations that internalize DOX. Flow cytometry immunophenotyping of T-Lymphocytes CD8+ e CD4+ to identify populations that internalize DOX (high, int, low). CM: Central Memory, EM: Effector Memory.

[1] = mouse, in vivo

SMILES: COc1cccc2c1C(=O)c1c(O)c3c(c(O)c1C2=O)C[C@@](O)(C(=O)CO)C[C@@H]3O[C@H]1C[C@H](N)[C@H](O)[C@H](C)O1 [DOX, doxorubicin]
- DOX uptake by lymphocyte sub-populations (patient-derived PBMC; FIG. 2): naïve T-cells (CD3+CD8+/CD4+CD45RO−) displayed the highest DOX uptake
- DOX internalization in PBMC (patient-derived PBMC; PBMC isolated after chemotherapy (FIG. 1)): promptly internalized DOX
- proliferation in response to mitogenic stimulations (patient-derived PBMC; after versus before chemotherapy (FIG. 1)): dramatic proliferative impairment
- cardiomyocyte cross-section area [1]: increase in cardiomyocyte cross-section area
- mitochondria area and cristae morphology [1]: alteration in mitochondria area and cristae morphology
- mitochondria number in heart tissue [1]: increase in mitochondria number
- mitochondrial membrane potential and amount of reduced glutathione [1]: induced alterations
